Data on 11 compounds can be found in ChEMBL document CHEMBL1201862, “PubChem BioAssay data set” (2004).

Some test systems named below: NCI/ADR-RES; HCT-116; SK-MEL-28; ACHN; HCT-15; UACC-62; COLO 205; DU-145; NCI-H23; UACC-257; NCI-H522; SF-268; HOP-62; MDA-MB-435; HL-60; K562; HT-29; IGROV-1; KM12; NCI-H226.
Holding throughout (experiment): DTP human tumour cell line panel, 48 h

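Five compound concentrations were applied to cells in 96-well plates for 48 hours; endpoints were derived by simple linear interpolation of the resulting dose-response curve. Abbreviation: GI50, concentration required for 50% inhibition of growth.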 Activity calls are given as the source filed them. Rule as the data show it: active = GI50 up to about 1.1 µM and inactive = higher. Residues, ends and D or L forms follow the SMILES beside them. *: point of attachment. Boc = CC(C)(C)OC(=O)*; OBn = c1ccc(CO*)cc1; Bn = c1ccc(C*)cc1

By GI50 is commonly meant the concentration giving 50% growth inhibition. As for `COc1c2cc(C(C)(C)C)cc1Cc1cccc(c1OCc1cccc([N+](=O)[O-])c1)Cc1cc(C(C)(C)C)cc(c1OC)Cc1cccc(c1OCc1cccc([N+](=O)[O-])c1)Cc1cc(C(C)(C)C)cc(c1OC)Cc1cccc(c1OCc1cccc([N+](=O)[O-])c1)C2`, the GI50 in the test on NCI/ADR-RES is > 50 µM (inactive); in the test with HCT-116, > 50 µM (inactive); in the test with SK-MEL-28 it was > 50 µM (inactive); with ACHN it was > 50 µM (inactive); with HCT-15 it was greater than 50 µM; in the test on UACC-62 it was > 50 µM (inactive). The GI50 in the test with COLO 205, with DU-145, in the test on NCI-H23, in the test with UACC-257, in the test with NCI-H522 and in the test with SF-268 was > 50 µM (inactive) each time. Besides, the GI50 in the test with HOP-62, with MDA-MB-435, with HL-60, in the test with K562, in the test with HT-29 and with IGROV-1 was > 50 µM (inactive) in each case. Moreover, the GI50 with KM12 was > 50 µM (inactive).
`CC(C)CC(NC(=O)C(Cc1ccccc1)NC(=O)C(COCc1ccccc1)NC(=O)OC(C)(C)C)C(=O)OCc1ccccc1` (stereo not drawn) (Boc-Ser(Bn)-Phe-Leu-OBn; configuration not given here): the GI50 in the test with NCI/ADR-RES is > 100 µM (inactive); in the test with HCT-116, 18.5 µM (inactive); in the test with SK-MEL-28, 19.5 µM (inactive); in the test on ACHN, 17.9 µM (inactive); with HCT-15, 16.3 µM; with UACC-62, 17.5 µM (inactive). The GI50 in the test on COLO 205 is 17.5 µM (inactive); in the test on DU-145, 9.57 µM (inactive); in the test on NCI-H23 it was 18.5 µM (inactive); in the test on UACC-257, 86.7 µM (inactive); in the test with NCI-H522, 13.8 µM (inactive); in the test with SF-268, 21.7 µM (inactive). The GI50 was 49.4 µM (inactive) with HOP-62; > 10 µM (inactive) in the test on MDA-MB-435; 4.01 µM (inactive) in the test with HL-60; 9.57 µM (inactive) with K562; 15.9 µM (inactive) in the test on HT-29; 17.4 µM (inactive) with IGROV-1.
In the case of `CCOC(=O)c1nc2c3c(ncn2n1)Oc1c(c(-c2ccccc2)nn1-c1ccccc1)C3c1ccc(OC)c(OC)c1` (stereo not drawn), the GI50 in the test on NCI/ADR-RES was 57.7 µM (inactive); in the test with HCT-116, 65.2 µM (inactive); in the test on SK-MEL-28 it was 49.2 µM (inactive); in the test on ACHN, 47 µM (inactive); in the test on HCT-15 it was greater than 100 µM; with UACC-62, 48.6 µM (inactive). The GI50 in the test with COLO 205 is > 100 µM (inactive); in the test on DU-145, > 100 µM (inactive); in the test with NCI-H23 it was > 100 µM (inactive); with UACC-257 it was > 100 µM (inactive); in the test with NCI-H522, > 100 µM (inactive); in the test with SF-268, 15.3 µM (inactive). Also, the GI50 in the test on HOP-62 is 16.3 µM (inactive); in the test with MDA-MB-435, > 100 µM (inactive); in the test on K562, 7.24 µM (inactive); in the test on HT-29 it was > 100 µM (inactive); in the test with IGROV-1 it was 52.1 µM (inactive); in the test on KM12 it was > 10 µM (inactive).
For `CC#Cc1ccc(-c2ccccc2)s1`, the GI50 in the test with NCI-H226 was > 100 µM (inactive); with NCI/ADR-RES, > 100 µM (inactive); in the test with HCT-116, > 100 µM (inactive); with SK-MEL-28, > 100 µM (inactive); in the test with ACHN, > 100 µM (inactive); in the test on HCT-15 it was greater than 100 µM. Besides, the GI50 in the test on UACC-62 is > 100 µM (inactive); in the test on COLO 205, > 100 µM (inactive); in the test with DU-145, > 100 µM (inactive); in the test with NCI-H23, 68.9 µM (inactive); with UACC-257, > 100 µM (inactive); with NCI-H522, > 100 µM (inactive). For the same compound, the GI50 with SF-268, in the test with MDA-MB-435, with HL-60, in the test on HT-29, with IGROV-1 and in the test with KM12 was > 100 µM (inactive) in each case.
Regarding `c1ccc(C2OCC(OC3CCCCO3)CO2)cc1` (stereo not drawn), the GI50 in the test on NCI-H226 is > 100 µM (inactive); in the test with NCI/ADR-RES it was > 100 µM (inactive); in the test on HCT-116 it was > 100 µM (inactive); with SK-MEL-28, > 100 µM (inactive); in the test with ACHN it was > 100 µM (inactive); with HCT-15 it was greater than 100 µM. Besides, the GI50 with UACC-62, in the test on COLO 205, in the test with DU-145, in the test with NCI-H23, in the test with UACC-257 and with NCI-H522 was > 100 µM (inactive) in each case. The GI50 with SF-268, with HOP-62, in the test with MDA-MB-435, in the test with HL-60, with K562 and with HT-29 was > 100 µM (inactive) throughout. The GI50 in the test with IGROV-1 was > 100 µM (inactive).
In the case of `C[C@@H]1C(O)CC[C@H](C)C12CC=CC2=O` (stereo partly drawn), the GI50 in the test on NCI-H226 is > 100 µM (inactive); with NCI/ADR-RES, > 100 µM (inactive); in the test with HCT-116, > 100 µM (inactive); with SK-MEL-28, > 100 µM (inactive); in the test with ACHN it was > 100 µM (inactive); in the test with HCT-15, greater than 100 µM. The GI50 in the test on UACC-62, with COLO 205, in the test on DU-145, in the test with NCI-H23, with UACC-257 and in the test on NCI-H522 was > 100 µM (inactive) throughout. Besides, the GI50 in the test on SF-268, in the test with HOP-62, in the test on MDA-MB-435, in the test on HL-60, in the test with K562 and in the test with HT-29 was > 100 µM (inactive) throughout. The GI50 in the test on IGROV-1 is > 100 µM (inactive).
With `Cc1cn(C2CC(O)C(Cn3nncc3Cn3nc(Br)c(=O)[nH]c3=O)O2)c(=O)[nH]c1=O` (stereo not drawn), the GI50 was > 100 µM (inactive) in the test on NCI-H226; > 100 µM (inactive) with NCI/ADR-RES; > 100 µM (inactive) in the test on HCT-116; > 100 µM (inactive) with SK-MEL-28; > 100 µM (inactive) with ACHN; greater than 100 µM in the test on HCT-15. In addition, the GI50 in the test on UACC-62, in the test on COLO 205, in the test with DU-145, in the test on NCI-H23, with UACC-257 and in the test with NCI-H522 was > 100 µM (inactive) each time. Moreover, the GI50 with SF-268, in the test with HOP-62, in the test on MDA-MB-435, in the test on IGROV-1 and in the test with KM12 was > 100 µM (inactive) throughout.
Turning to `S=C=NC1CCC(c2cc3ccccc3s2)(N2CCCCC2)CC1` (stereo not drawn), the GI50 was 1.84 µM (inactive) in the test with NCI/ADR-RES; 1.82 µM (inactive) in the test on HCT-116; 1.6 µM (inactive) in the test with SK-MEL-28; 1.93 µM (inactive) with ACHN; 1.53 µM with HCT-15; 1.76 µM (inactive) in the test on UACC-62. Besides, the GI50 is 1.98 µM (inactive) in the test on COLO 205; 2.08 µM (inactive) with DU-145; 1.92 µM (inactive) with NCI-H23; 1.73 µM (inactive) with UACC-257; 1.63 µM (inactive) in the test on NCI-H522; 2.08 µM (inactive) in the test on SF-268. The GI50 in the test on HOP-62 is 2.07 µM (inactive); in the test with MDA-MB-435, 1.62 µM (inactive); in the test with HL-60, 1.31 µM (inactive); in the test with K562, 0.0546 µM (active); in the test with HT-29, 1.77 µM (inactive); in the test with KM12 it was 1.87 µM (inactive).
Regarding `COC(=O)C(CCSC)NC(=O)CNC(=O)CSc1nnc(COc2ccc(Cl)cc2)n1-c1ccccc1` (stereo not drawn), the GI50 was 18.8 µM (inactive) with NCI-H226; 82.2 µM (inactive) in the test with NCI/ADR-RES; 16.9 µM (inactive) in the test on HCT-116; 17.5 µM (inactive) in the test with SK-MEL-28; 17 µM (inactive) in the test on ACHN; 18.3 µM in the test with HCT-15. The GI50 is 16.7 µM (inactive) in the test with UACC-62; 18.2 µM (inactive) in the test on COLO 205; 23 µM (inactive) in the test with DU-145; 16.6 µM (inactive) in the test with NCI-H23; 18.3 µM (inactive) with UACC-257; 17.1 µM (inactive) with SF-268. The GI50 in the test with HOP-62 was 17.1 µM (inactive); in the test on MDA-MB-435, 17.9 µM (inactive); in the test with HL-60, 19.3 µM (inactive); in the test on K562, 26.5 µM (inactive); in the test on HT-29 it was 17.7 µM (inactive); in the test on IGROV-1, 16.6 µM (inactive). The GI50 in the test with KM12 was 20.2 µM (inactive).
With `O=C(O)c1ccc(Nc2nc3cc(C(F)(F)F)ccc3n3cccc23)cc1`, the GI50 with NCI/ADR-RES was 61.9 µM (inactive); with HCT-116 it was 23.1 µM (inactive); in the test on SK-MEL-28, 46.2 µM (inactive); in the test on ACHN, 24.9 µM (inactive); in the test with HCT-15 it was 23.3 µM; with UACC-62, 23.9 µM (inactive). For the same compound, the GI50 with COLO 205 was 22.5 µM (inactive); in the test on DU-145, 49.2 µM (inactive); in the test on NCI-H23, 35.8 µM (inactive); with UACC-257, 30.2 µM (inactive); in the test on NCI-H522 it was 23.4 µM (inactive); in the test on SF-268, 40.6 µM (inactive). Besides, the GI50 in the test on HOP-62 is 41 µM (inactive); with MDA-MB-435, 34.7 µM (inactive); in the test on HL-60, 18.4 µM (inactive); with K562 it was 15.3 µM (inactive); in the test with HT-29 it was 10.4 µM (inactive); with IGROV-1, 29.5 µM (inactive). The GI50 in the test with KM12 was 19.8 µM (inactive).
As for `CCOc1cc(/C=N/c2ccc(Oc3ccc(Cl)cc3)c(Cl)c2)ccc1O`, the GI50 was 26.9 µM (inactive) in the test on NCI-H226; 21.8 µM (inactive) with NCI/ADR-RES; 17.9 µM (inactive) with HCT-116; 25.2 µM (inactive) in the test on SK-MEL-28; 32.4 µM (inactive) in the test with ACHN; 22.5 µM in the test on HCT-15. The GI50 was 27.7 µM (inactive) with UACC-62; 17.5 µM (inactive) in the test with COLO 205; 50.5 µM (inactive) in the test on DU-145; 22.7 µM (inactive) with NCI-H23; 27.1 µM (inactive) in the test with UACC-257; 13.7 µM (inactive) in the test on NCI-H522. For the same compound, the GI50 in the test with SF-268 was 15.7 µM (inactive); with HOP-62, 23.1 µM (inactive); in the test with MDA-MB-435, 35.3 µM (inactive); in the test with HL-60 it was 15.3 µM (inactive); in the test on HT-29, 20.8 µM (inactive); in the test with IGROV-1 it was 19.1 µM (inactive). Besides, the GI50 with KM12 was 18.2 µM (inactive).
